Results: patent US12318388B2, “Pyrimidine derivatives for prevention and treatment of gram-negative bacterial infection, contamination and fouling” (UNIVERSITÉ DE LIÈGE, priority 2019, dated 2025)
Converted amounts (≈) assume the structure as drawn.

Columns and labels:
[1] = test system: Escherichia coli (ATCC 8739); experiment: Minimal Inhibitory Concentration (MIC) on Escherichia coli with or without PMBN, OD600 after O/N growth; assay type: cell-based; conditions: for MIC / Minimal inhibitory concentration With PMBN: E. coli (ATCC 8739); for MIC: molecule alone; for Minimal inhibitory concentration With PMBN: together with PMBN at 40 μg/ml
Protocol: The Minimal Inhibitory Concentration (MIC) of molecules 2329, 2412, 2452 and 2461 together with polymyxin B nonapeptide (PMBN) was determined on Escherichia coli (ATCC 8739) according to EUCAST (European Committee on Antimicrobial Susceptibility Testing) recommendations.
(§1) Briefly, a single colony grown on a Luria-Bertani Agar (LB) plate was resuspended and cultured in the LB medium overnight (O/N) in aerobic conditions (37° C. with 220 rpm shaking), next day a 1:50 inoculum in Mueller-Hinton broth (MHB) was incubated in aerobic conditions for 1h30 (OD=0.08-0.1) and an inoculum of 1:300 dilution, corresponding to 3×10^6 CFU/ml, was incubated in presence or absence of different concentrations of the molecules in 1% DMSO (vehicle) with or without Polymyxin B nonapeptide (PMBN) at 40 μg/ml. After O/N growth the OD of each culture was measured at 600 nm in a spectrophotometer (OD600). The MIC represents the concentration at which there is no visible growth of bacteria, i.e. ΔOD at 600 nm equal to zero wherein ΔOD is the difference between the resulting optical density (OD) with the molecule together with PMBN, and the optical density (OD) of the blank (blank is the medium) alone.
(§2) A single colony grown on an Lurian-Bertani (LB) agar plate is resuspended and cultured in LB medium overnight (O/N) in aerobic conditions (37° C. with 220 rpm shaking), next day a 1:50 inoculum in Mueller-Hinton broth (MHB) is incubated in aerobic conditions for 1h30 (OD=0.08-0.1) and an inoculum of 1:300 dilution, corresponding to 3×10^6 CFU/ml, is incubated in presence or absence of different concentrations of the tested molecules in 1% DMSO (vehicle) with or without PMBN at 40 μg/ml. After O/N growth the OD of each culture was measured at 600 nm (OD600) in a spectrophotometer (Victor 3-Perkin Elmer). The MIC represents the concentration at which there is no visible growth of bacteria, i.e. ΔOD at 600 nm equal to zero wherein ΔOD is the difference between the resulting optical density (OD) with the molecule together with PMBN, and the optical density (OD) of the blank (blank is the medium) alone.
as §1, with “cultured in LB medium” for “cultured in the LB medium”, “of the above-mentioned molecules in” for “of the molecules in”
as §2, with “a Luria-Bertani” for “an Lurian-Bertani”, “above-mentioned pyrazolopyrimidine molecule” for “tested molecules”, “alone. […]” for “alone.”

[2] = test system: Pseudomonas aeruginosa (ATCC27853); experiment: Minimal Inhibitory Concentration (MIC) on Pseudomonas aeruginosa with or without PMBN; assay type: cell-based; conditions: Pseudomonas aeruginosa (ATCC 27853); for Minimal inhibitory concentration without PMBN: molecule alone; for Minimal inhibitory concentration With PMBN: together with PMBN at 0.5 μg/ml
Protocol: A single colony grown on an tryptic soy agar plate is resuspended and cultured in tryptic soy broth medium overnight (O/N) in aerobic conditions (37° C. with 220 rpm shaking), next day a 1:100 inoculum in Mueller-Hinton broth (MHB) is incubated in aerobic conditions for 3h (OD=0.5-0.6) and an inoculum of 1:1000 dilution, corresponding to 1-3×10^5 CFU/ml, is incubated in presence or absence of different concentrations of the tested molecules in 1% DMSO (vehicle) with or without PMBN at 0.5 μg/ml. After 28-30h growth the OD of each culture was measured at 600 nm (OD600) in a spectrophotometer (Victor 3-Perkin Elmer). The MIC represents the concentration at which there is no visible growth of bacteria, i.e. ΔOD at 600 nm equal to zero (blank is the medium alone) wherein ΔOD is the difference between the resulting optical density (OD) with the molecule together with PMBN, and the optical density (OD) of the blank (blank is the medium) alone.

[3] = 100 μM together with 40 μg/ml PMBN
[4] = with 10 to 50 µg/ml PMBN, particularly 40 μg/ml

MIC [1] [µM]	MIC ([1]; Escherichia coli, ATCC8739) [µM]	Compound	OD600 nm after O/N growth of Escherichia coli (FIG. 4) ([1]; 50 μM with 40 μg/ml PMBN)	Minimal inhibitory concentration With PMBN [1] [µM]	Activity against Escherichia coli (ATCC 8739), conclusion ([1]; with 40 μg/ml PMBN)	Minimal inhibitory concentration without PMBN [2] [µM]	Minimal inhibitory concentration With PMBN [2] [µM]	OD600 nm after O/N growth of Escherichia coli (FIG. 4) ([1]; 20 μM with 40 μg/ml PMBN)	Antibacterial activity against E. coli (ATCC8739) [1]	OD600 nm after O/N growth of Escherichia coli (FIG. 4) [1, 3]	Activity against Escherichia coli (ATCC 8739), conclusion [1, 4]
>100	> 100	CCSc1nc(N[C@@H]2C[C@H]2c2ccc(F)c(F)c2)c2ncn(C)c2n1 [molecule 2525, N-((1R,2S)-2-(3,4-difluorophenyl)cyclopropyl)-2-(ethylthio)-9-methyl-9H-purin-6-amine]	killed all bacteria	50 (≈ 18.1 µg/mL)	bactericidal activity	–	–	–	–	–	–
>100	> 100	CSc1nc(N[C@@H]2C[C@H]2c2ccc(F)c(F)c2)c2cnn(C)c2n1 [molecule 2539, N-((1R,2S)-2-(3,4-difluorophenyl)cyclopropyl)-1-methyl-6-(methylthio)-1H-pyrazolo[3,4-d]pyrimidin-4-amine]	killed all bacteria	25 (≈ 8.68 µg/mL)	bactericidal activity	–	–	–	–	–	–
>100	> 100	CCCSc1nc(N[C@@H]2C[C@H]2c2ccc(F)c(F)c2)c2ncn([C@@H]3C[C@H](O)[C@@H](O)[C@H]3O)c2n1 [molecule 2461, (1S,2R,3S,4R)-4-(6-(((1R,2S)-2-(3,4-difluorophenyl)cyclopropyl)amino)-2-(propylthio)-9H-purin-9-yl)cyclopentane-1,2,3-triol]	–	10 (≈ 4.78 µg/mL)	bactericidal activity	>100	50 (≈ 23.9 µg/mL)	killed all bacteria	–	–	–
>100	> 100	C#CCn1cnc2c(N[C@@H]3C[C@H]3c3ccc(F)c(F)c3)nc(SCCC)nc21 [molecule 2452, N-((1R,2S)-2-(3,4-difluorophenyl)cyclopropyl)-9-(prop-2-yn-1-yl)-2-(propylthio)-9H-purin-6-amine]	–	10 (≈ 3.99 µg/mL)	–	>100	50 (≈ 20 µg/mL)	–	–	–	–
–	–	CCCCOc1nc(NCc2ccccc2)c2ncn(Cc3c(F)ccc(C)c3F)c2n1 [molecule 39z″, N-Benzyl-2-butoxy-9-(2,6-difluoro-3-methylbenzyl)-9H-purin-6-amine, reference compound]	–	> 100	–	–	–	–	no antibacterial activity	did not differ from vehicle control	no antibacterial activity
–	–	CCCCCOc1nc(NCc2ccccc2)c2ncn(Cc3c(F)ccc(C)c3F)c2n1 [molecule 40z″, N-benzyl-9-(2,6-difluoro-3-methylbenzyl)-2(pentyloxy)-9H-purin-6-amine, reference compound]	–	> 100	–	–	–	–	no antibacterial activity	did not differ from vehicle control	no antibacterial activity
>100	> 100	C=CCn1cnc2c(N[C@@H]3C[C@H]3c3ccc(F)c(F)c3)nc(SCCC)nc21 [molecule 2412, 9-allyl-N-((1R,2S)-2-(3,4-difluorophenyl)cyclopropyl)-2-(propylthio)-9H-purin-6-amine]	–	50 (≈ 20.1 µg/mL)	–	>100	50 (≈ 20.1 µg/mL)	–	–	–	–
>100	> 100	CCn1cnc2c(N[C@@H]3C[C@H]3c3ccc(F)c(F)c3)nc(SC)nc21 [molecule 2511, N-((1R,2S)-2-(3,4-difluorophenyl)cyclopropyl)-9-ethyl-2-(methylthio)-9H-purin-6-amine]	killed all bacteria	50 (≈ 18.1 µg/mL)	bactericidal activity	–	–	–	–	–	–
–	–	CCCCSc1nc(NCc2c(F)ccc(C)c2F)c2ncn(Cc3c(F)ccc(C)c3F)c2n1 [molecule 41z″, 2-(Butylthio)-N,9-bis(2,6-difluoro-3-methylbenzyl)-9H-purin-6-amine, reference compound]	–	> 100	–	–	–	–	no antibacterial activity	did not differ from vehicle control	no antibacterial activity
>100	> 100	CCCCSc1nc(N[C@@H]2C[C@H]2c2ccc(F)c(F)c2)c2ncn(C)c2n1 [molecule 2833, 2-(butylthio)-N-((1R,2S)-2-(3,4-difluorophenyl)cyclopropyl)-9-methyl-9H-purin-6-amine]	–	90 (≈ 35.1 µg/mL)	–	–	–	–	–	–	–
–	–	CCCCOc1nc(NC2CC2)c2ncn(Cc3c(F)ccc(C)c3F)c2n1 [molecule 38z″, 2-Butoxy-N-cyclopropyl-9-(2,6-difluoro-3-methylbenzyl)-9H-purin-6-amine, reference compound]	–	> 100	–	–	–	–	no antibacterial activity	did not differ from vehicle control	no antibacterial activity
